According to patent US10524471B2, “Compositions and methods for increasing salt tolerance in plants” (King Abdullah University of Science and Technology, priority 2016, dated 2020):
Entries after “also recorded” stand apart in the source; their conditions may differ.

Test system: Arabidopsis seedlings
Assay: Arabidopsis salt stress tolerance assay (½ MS + 100 mM NaCl)
Assay type: in vivo, Arabidopsis thaliana

Row | SMILES | effect on salt stress tolerance compared with SA187 (100 nM ACC, ½ MS + 100 mM NaCl, 12 days after transfer) | SA187-induced tolerance to salt stress in presence of inhibitor (in vivo)
1 | NC1(C(=O)O)CC1 [ACC, 1-aminocyclopropane-1-carboxylic acid] | could largely mimic the beneficial activity of SA187; also recorded: partially mimics the effect of SA187 | –
2 | O=[N+]([O-])[O-].[Ag+] [AgNO3, silver nitrate] | – | did not exhibit any SA187-induced tolerance to salt stress
